16 compounds from patent publication US20100113421A1, “NON-NUCLEOSIDE REVERSE TRANSCRIPTASE INHIBITORS” (priority 2006, published 2010) can be followed below.

Molecules are shown by their SMILES.

Assay [1] concerns mutant strain containing both the K103N and Y181C mutations. The assay can be described thus: Spread assay, mutant strain containing both K103N and Y181C. It counts as cell-based, HIV. As to conditions: Human immunodeficiency virus 1; analogous spread assay, K103N and Y181C double mutant strain; read-out: CIC95. As for the experimental part: Assays for the inhibition of acute HIV-1 infection of T-lymphoid cells (alternatively referred to herein as the “spread assay”) were conducted in accordance with Vacca, J. P. et al., Proc. Natl. Acad. Sci. USA 1994, 91: 4096. The assays (using 10% FBS) tested for inhibition of wild type HIV-1 and of HIV strains containing the Y181C or K103N mutation. […] (Note that the compound of Example 6 was tested only up to a 833 nM concentration and the CIC95 value was determined to be >833 nM. The compound of Example 78 was not tested in the Y1818C assay.) The compounds of Examples 1 to 119 (including Examples 70A and 70B) had CIC95 values of less than 1000 nanomolar in the assay employing the K103N mutant strain. In an analogous assay employing a mutant strain containing both the K103N and Y181C mutations, the compounds of Examples 70A, 70B and 78-115 had CIC95 values of less than 1000 nanomolar.

For assay [2], the system named is HIV strain containing the Y181C mutation. As to the kind of experiment: Spread assay, Y181C mutant strain. It counts as cell-based. As to conditions: Human immunodeficiency virus 1; spread assay, 10% FBS, Y181C mutant strain; read-out: CIC95. The method, boiled down:
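Acute HIV-1 infection of T-lymphoid cells run in the presence of 10% FBS, […]; potency expressed as CIC95.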

For the compound `CC(C)c1c(C(=O)N(C)Cc2ccnc(N)c2)[nH]c(C(N)=O)c1S(=O)(=O)c1cc(F)cc(F)c1` [Example 100, N5-[(2-aminopyridin-4-yl)methyl]-3-[(3,5-difluorophenyl)sulfonyl]-4-isopropyl-N5-methyl-1H-pyrrole-2,5-dicarboxamide], the IC95 is under 1 µM in assay [1] and under 8 µM in assay [2].

As to `CC(C)c1c(C(=O)N(C)Cc2ccnc(N)c2)[nH]c(C(N)=O)c1S(=O)(=O)c1ccccc1` [Example 101], the figures for the IC95 in assay [1] and in assay [2] were under 1 µM and under 8 µM, respectively.

With `Cc1cc(C)cc(S(=O)(=O)c2c(C(N)=O)[nH]c(C(=O)N(C)Cc3ccnc(N)c3)c2C(C)C)c1` [Example 102, N5-[(2-aminopyridin-4-yl)methyl]-3-[(3,5-dimethylphenyl)sulfonyl]-4-isopropyl-N5-methyl-1H-pyrrole-2,5-dicarboxamide], the figures for the IC95 in assay [1] and in assay [2] were under 1 µM and under 8 µM, respectively.

For the compound `Cc1cc(C)cc(S(=O)(=O)c2c(C(N)=O)[nH]c(C(=O)N(C)Cc3cc(N)ncc3F)c2C)c1` [Example 103, N5-[(2-amino-5-fluoropyridin-4-yl)methyl]-3-[(3,5-dimethylphenyl)sulfonyl]-N5,4-dimethyl-1H-pyrrole-2,5-dicarboxamide], the IC95 is under 1 µM in assay [1] and under 8 µM in assay [2].

Take `CC(C)c1c(C(=O)N(C)Cc2cc(N)ncc2F)[nH]c(C(N)=O)c1S(=O)(=O)c1ccccc1` [Example 104]: the IC95 in assay [1] was under 1 µM; in assay [2] it was under 8 µM.

In the case of `Cc1cc(C)cc(S(=O)(=O)c2c(C(N)=O)[nH]c(C(=O)N(C)Cc3ccncc3Cl)c2C)c1` [Example 105, N5-[(3-chloropyridin-4-yl)methyl]-3-[(3,5-dimethylphenyl)sulfonyl]-N5,4-dimethyl-1H-pyrrole-2,5-dicarboxamide], the IC95 is under 1 µM in assay [1] and under 8 µM in assay [2].

In the case of `CC(C)c1c(C(=O)N(C)Cc2ccncc2Cl)[nH]c(C(N)=O)c1S(=O)(=O)c1ccccc1` [Example 106, N2-[(3-chloropyridin-4-yl)methyl]-3-isopropyl-N2-methyl-4-(phenylsulfonyl)-1H-pyrrole-2,5-dicarboxamide], the IC95 in assay [1] was under 1 µM; in assay [2], under 8 µM.

Consider `Cc1cc(C)cc(S(=O)(=O)c2c(C(N)=O)[nH]c(C(=O)N(C)Cc3ccnc(Cl)c3F)c2C)c1` [Example 107, N5-[(2-chloro-3-fluoropyridin-4-yl)methyl]-3-[(3,5-dimethylphenyl)sulfonyl]-N5,4-dimethyl-1H-pyrrole-2,5-dicarboxamide], for which the IC95 in assay [1] is under 1 µM; in assay [2] it was under 8 µM.

In the case of `CC(C)c1c(C(=O)N(C)Cc2ccnc(Cl)c2F)[nH]c(C(N)=O)c1S(=O)(=O)c1ccccc1` [Example 108, N2-[(2-chloro-3-fluoropyridin-4-yl)methyl]-3-isopropyl-N2-methyl-4-(phenylsulfonyl)-1H-pyrrole-2,5-dicarboxamide], the IC95 in assay [1] was under 1 µM; in assay [2] it was under 8 µM.

Take `Cc1cc(C)cc(S(=O)(=O)c2c(C(N)=O)[nH]c(C(=O)N(C)Cc3ccncc3F)c2C)c1` [Example 109, 3-[(3,5-dimethylphenyl)sulfonyl]-N5-[(3-fluoropyridin-4-yl)methyl]-N5,4-dimethyl-1H-pyrrole-2,5-dicarboxamide]: the IC95 was under 1 µM in assay [1] and under 8 µM in assay [2].

For `CC(C)c1c(C(=O)N(C)Cc2ccncc2F)[nH]c(C(N)=O)c1S(=O)(=O)c1ccccc1` [Example 110, N2-[(3-fluoropyridin-4-yl)methyl]-3-isopropyl-N2-methyl-4-(phenylsulfonyl)-1H-pyrrole-2,5-dicarboxamide], the IC95 is under 1 µM in assay [1] and under 8 µM in assay [2].

As for `Cc1cc(C)cc(S(=O)(=O)c2c(C(N)=O)[nH]c(C(=O)N(C)Cc3c(F)cncc3F)c2C)c1` [Example 111, N5-[(3,5-difluoropyridin-4-yl)methyl]-3-[(3,5-dimethylphenyl)sulfonyl]-N5,4-dimethyl-1H-pyrrole-2,5-dicarboxamide], the IC95 was under 1 µM in assay [1] and under 8 µM in assay [2].

In the case of `CC(C)c1c(C(=O)N(C)Cc2c(F)cncc2F)[nH]c(C(N)=O)c1S(=O)(=O)c1ccccc1` [Example 112, N2-[(3,5-difluoropyridin-4-yl)methyl]-3-isopropyl-N2-methyl-4-(phenylsulfonyl)-1H-pyrrole-2,5-dicarboxamide], the IC95 in assay [1] is under 1 µM; in assay [2] it was under 8 µM.

With `Cc1cc(C)cc(S(=O)(=O)c2c(C(N)=O)[nH]c(C(=O)N(C)Cc3cc(Cl)ncc3F)c2C)c1` [Example 113, N5-[(2-chloro-5-fluoropyridin-4-yl)methyl]-3-[(3,5-dimethylphenyl)sulfonyl]-N5,4-dimethyl-1H-pyrrole-2,5-dicarboxamide], the IC95 was under 1 µM in assay [1] and under 8 µM in assay [2].

In the case of `CC(C)c1c(C(=O)N(C)Cc2cc(Cl)ncc2F)[nH]c(C(N)=O)c1S(=O)(=O)c1ccccc1` [Example 114, N2-[(2-chloro-5-fluoropyridin-4-yl)methyl]-3-isopropyl-N2-methyl-4-(phenylsulfonyl)-1H-pyrrole-2,5-dicarboxamide], the IC95 was under 1 µM in assay [1] and under 8 µM in assay [2].

In the case of `CC(C)c1c(C(=O)N(C)Cc2ccnc(N)c2F)[nH]c(C(N)=O)c1S(=O)(=O)c1ccccc1` [Example 115, N2-[(2-amino-3-fluoropyridin-4-yl)methyl]-3-isopropyl-N2-methyl-4-(phenylsulfonyl)-1H-pyrrole-2,5-dicarboxamide], the IC95 in assay [1] was under 1 µM; in assay [2], under 8 µM.
